Measurements: patent US11672798B2, “Ciprofloxacin ophthalmic topical composition for treating ocular disease” (LABORATORIOS SALVAT, S.A., priority 2021, dated 2023)

Assays:
[1] = topical ocular administration, background statement; cited from earlier work
[2] = system: SIRC (Statens Serum Institut Rabbit Cornea, ATCC CCL-60) cells
Description: Permeability assays were performed in triplicate and repeated at least in three independent assays on different days. For this purpose, SIRC (Statens Serum Institut Rabbit Cornea, ATCC® CCL-60™) cells were seeded in sterile 6-well microfilter plates and maintained in culture until confluence. SIRC cells were cultured in Eagle's Minimum Essential Medium (EMEM) supplemented with 10% foetal bovine serum (FBS) and with 1% of penicillin-streptomycin solution at 37° C. and 10% CO2 in air. Ciprofloxacin was dissolved in dimethyl sulfoxide (DMSO) to prepare a concentrated stock solution which was further diluted in culture medium to obtain a final concentration of 20 μg/ml.
The cells were treated with ciprofloxacin alone or in combination with the different concentrations of each corticosteroid for 15 minutes. After the incubation period, the culture medium was removed, and the cells were harvested by trypsinization and centrifuged at 980 g for 5 min at 4° C. The cellular pellet was washed with saline solution to remove possible traces of residual extracellular compounds, centrifuged, and preserved at −80° C. for further analysis.
Intracellular ciprofloxacin was quantified by ultra-high-performance liquid chromatography coupled to tandem mass spectrometry (UHPLC-MS/MS). […] Transition monitored for ciprofloxacin was m/z 332.2→288.2, with cone voltage 35 V and collision energy 20 eV.

Row | dose dependence of the penetration enhancing effect on ciprofloxacin [2] | Structure (SMILES) | fraction of topically instilled drug absorbed into the ocular tissue [1]
1 |  | O=C(O)c1cn(C2CC2)c2cc(N3CCNCC3)c(F)cc2c1=O [ciprofloxacin, Ciprofloxacin] | around 1%
2 | dose-dependent | CC1(C)O[C@@H]2C[C@H]3[C@@H]4C[C@H](F)C5=CC(=O)C=C[C@]5(C)[C@@]4(F)[C@@H](O)C[C@]3(C)[C@]2(C(=O)CO)O1 [fluocinolone acetonide, Fluocinolone acetonide] | 
